Test results reported in patent US10029989B2, “Imidazole derivatives” (Hoffmann-La Roche Inc., priority 2015, dated 2018).

Key:
human EAAT3 = biological target: T1, human EAAT3 (Homo sapiens, UniProt P43005); assay: FLIPR Membrane Potential (FMP) assay, antagonist potency at human EAAT3; type: cell-based; details: HEK-293 cells stably expressing human EAAT3; L-glutamate as agonist at EC80; antagonist applied 15 min before agonist; Kb by Cheng-Prusoff from IC50
T1 construct: expressed in transfected cells
T1 sequence (P43005 1-524): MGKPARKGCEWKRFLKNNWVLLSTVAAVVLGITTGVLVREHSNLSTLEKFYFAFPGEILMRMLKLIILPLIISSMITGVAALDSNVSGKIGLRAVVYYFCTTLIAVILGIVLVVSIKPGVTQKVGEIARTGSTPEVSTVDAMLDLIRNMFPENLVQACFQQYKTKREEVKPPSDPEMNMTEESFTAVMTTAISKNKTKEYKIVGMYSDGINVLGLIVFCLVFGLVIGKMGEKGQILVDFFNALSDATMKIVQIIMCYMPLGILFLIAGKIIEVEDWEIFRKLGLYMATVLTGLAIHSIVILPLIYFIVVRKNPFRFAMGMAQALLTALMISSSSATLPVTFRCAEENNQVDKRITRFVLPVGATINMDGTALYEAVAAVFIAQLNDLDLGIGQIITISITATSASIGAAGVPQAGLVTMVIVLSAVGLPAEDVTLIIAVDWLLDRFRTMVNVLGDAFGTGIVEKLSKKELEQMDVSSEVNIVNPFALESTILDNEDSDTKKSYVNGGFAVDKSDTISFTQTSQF
Description: The FLIPR Membrane Potential (FMP) Assay
HEK-293 cells stably expressing human EAAT3 were seeded at 55 000 cells/well in growth medium (DMEM glutamate free (Invitrogen 11960-044), 1% Pen Strep (10 ml/1 GIBCO BRL N°15140-023), 10% FCS non dialysed heat inactivated, 5 mg/l puromycin) in poly-D-lysine treated 96-well black microtiter plates with clear-bottom. After 24 h, the growth medium was removed and 100 μl/well of Krebs buffer (140 mM NaCl, 4.7 mM KCl, 2.5 mM CaCl2, 1.2 mM MgCl2, 11 mM HEPES, 10 mM D-glucose, pH=7.4) added. The cells were then loaded by adding 100 μl/well FMP assay dye (FLIPR Membrane Potential assay reagent, Molecular Devices). The 96-well plates were then incubated at 37° C. for 1 h. The depolarization of the cells will cause more dye to enter in the cells, where it will bind to intracellular proteins and lipids and cause an increase in the fluorescence signal. Antagonist potency at human EAAT3 was determined by using L-glutamate as agonist at a concentration which gives 80% of the maximum response. The antagonists were applied 15 min before the application of the agonist L-glutamate. The assays were performed at room temperature and measurements done by using a Fluorometric Imaging Plate Reader (FLIPR, Molecular Devices) and filter #2. Responses were measured as peak increase in fluorescence minus basal (i.e. fluorescence without addition of L-glutamate). Kb was determined using the Cheng-Prusoff equation Kb=IC50/[1+(A/EC50)], where IC50 is the concentration of the antagonist producing 50% inhibition, A is the concentration of the agonist against which the IC50 is being determined (at EC80) and EC50 is the concentration of the agonist producing 50% […].

Kb (human EAAT3) [nM] | melting point [°C] | SMILES
220 | 112 | CC(C)c1nccn1-c1cc(C(=O)NC2(C)CCS(=O)(=O)C2)cc(-c2ccc(Cl)cc2)c1 (racemic) [Example 38, (RS)-3-(4-Chlorophenyl)-N-(3-methyl-1,1-dioxothiolan-3-yl)-5-(2-propan-2-ylimidazol-1-yl)-benzamide]
180 | 115 | CC1(NC(=O)c2cc(-c3ccc(Cl)cc3)cc(-n3ccnc3C3CC3)c2)CCS(=O)(=O)C1 (racemic) [Example 39, (RS)-3-(4-chlorophenyl)-5-(2-cyclopropylimidazol-1-yl)-N-(3-methyl-1,1-dioxothiolan-3-yl)-benzamide]
180 | – | CC(C)c1nccn1-c1cc(C(=O)NC(C)(C)C)cc(-c2ccc(Cl)cc2)c1 [Example 1, N-tert-Butyl-3-(4-chlorophenyl)-5-(2-propan-2-ylimidazol-1-yl)-benzamide]
230 | – | CC(C)(C)NC(=O)c1cc(-c2ccc(Cl)cc2)cc(-n2ccnc2)c1 [Example 2, N-tert-Butyl-3-(4-chlorophenyl)-5-imidazol-1-ylbenzamide]
190 | 220 | Cc1nccn1-c1cc(C(=O)NC(C)(C)C)cc(-c2ccc(Cl)cc2)c1 [Example 3, N-tert-Butyl-3-(4-chlorophenyl)-5-(2-methylimidazol-1-yl)-benzamide]
180 | – | CCc1nccn1-c1cc(C(=O)NC(C)(C)C)cc(-c2ccc(Cl)cc2)c1 [Example 4, N-tert-Butyl-3-(4-chlorophenyl)-5-(2-ethylimidazol-1-yl)-benzamide]
120 | – | CC(C)(C)NC(=O)c1cc(-c2ccc(Cl)cc2)cc(-n2ccnc2C2CC2)c1 [Example 5, N-tert-Butyl-3-(4-chlorophenyl)-5-(2-cyclopropylimidazol-1-yl)-benzamide]
76 | 224 | CC(C)c1nccn1-c1cc(C(=O)NC(C)(C)C)cc(-c2ccc(F)cc2)c1 [Example 6, N-tert-Butyl-3-(4-fluorophenyl)-5-(2-propan-2-ylimidazol-1-yl)-benzamide]
200 | 115.5 | CC(C)c1nccn1-c1cc(C(=O)NC(C)(C)C(F)(F)F)cc(-c2ccc(Cl)cc2)c1 [Example 7, 3-(4-Chlorophenyl)-5-(2-propan-2-ylimidazol-1-yl)-N-(1,1,1-trifluoro-2-methylpropan-2-yl)-benzamide]
230 | 189 | CC(C)c1nccn1-c1cc(C(=O)NC(C)(C)C2CC2)cc(-c2ccc(Cl)cc2)c1 [Example 8, 3-(4-Chlorophenyl)-N-(2-cyclopropylpropan-2-yl)-5-(2-propan-2-ylimidazol-1-yl)-benzamide]
220 | 183 | CCc1nccn1-c1cc(C(=O)NC(C)(C)C2CC2)cc(-c2ccc(Cl)cc2)c1 [Example 9, 3-(4-Chlorophenyl)-N-(2-cyclopropylpropan-2-yl)-5-(2-ethylimidazol-1-yl)-benzamide]
110 | 238 | CCc1nccn1-c1cc(C(=O)NC(C)(C)C)cc(-c2ccc(F)cc2)c1 [Example 10, N-tert-Butyl-3-(2-ethylimidazol-1-yl)-5-(4-fluorophenyl)-benzamide]
170 | 180 | Cc1nccn1-c1cc(C(=O)NC(C)(C)C2CC2)cc(-c2ccc(Cl)cc2)c1 [Example 11, 3-(4-Chlorophenyl)-N-(2-cyclopropylpropan-2-yl)-5-(2-methylimidazol-1-yl)-benzamide]
130 | 208 | Cc1nccn1-c1cc(C(=O)NC(C)(C)C)cc(-c2ccc(F)cc2)c1 [Example 12, N-tert-Butyl-3-(4-fluorophenyl)-5-(2-methylimidazol-1-yl)-benzamide]
310 | 90 | CC(C)(NC(=O)c1cc(-c2ccc(Cl)cc2)cc(-n2ccnc2C2CC2)c1)C1CC1 [Example 13, 3-(4-Chlorophenyl)-5-(2-cyclopropylimidazol-1-yl)-N-(2-cyclopropyl-propan-2-yl)-benzamide]
130 | 199.5 | Cc1nccn1-c1cc(C(=O)NC(C)(C)C(F)(F)F)cc(-c2ccc(Cl)cc2)c1 [Example 14, 3-(4-Chlorophenyl)-5-(2-methylimidazol-1-yl)-N-(1,1,1-trifluoro-2-methylpropan-2-yl)-benzamide]
150 | 101.5 | CC(C)(NC(=O)c1cc(-c2ccc(Cl)cc2)cc(-n2ccnc2C2CC2)c1)C(F)(F)F [Example 15, 3-(4-Chlorophenyl)-5-(2-cyclopropylimidazol-1-yl)-N-(1,1,1-trifluoro-2-methylpropan-2-yl)-benzamide]
130 | 250.5 | CC(C)(C)NC(=O)c1cc(-c2ccc(F)cc2)cc(-n2ccnc2C2CC2)c1 [Example 16, N-tert-Butyl-3-(2-cyclopropylimidazol-1-yl)-5-(4-fluorophenyl)-benzamide]
120 | 80 | CC(C)c1nccn1-c1cc(C(=O)NC(C)(C)C2CC2)cc(-c2ccc(F)cc2)c1 [Example 17, N-(2-Cyclopropylpropan-2-yl)-3-(4-fluorophenyl)-5-(2-propan-2-ylimidazol-1-yl)-benzamide]
170 | 70 | CCc1nccn1-c1cc(C(=O)NC(C)(C)C2CC2)cc(-c2ccc(F)cc2)c1 [Example 18, N-(2-Cyclopropylpropan-2-yl)-3-(2-ethylimidazol-1-yl)-5-(4-fluorophenyl)-benzamide]
290 | 184 | Cc1nccn1-c1cc(C(=O)NC(C)(C)C2CC2)cc(-c2ccc(F)cc2)c1 [Example 19, N-(2-Cyclopropylpropan-2-yl)-3-(4-fluorophenyl)-5-(2-methylimidazol-1-yl)-benzamide]
33 | 83 | CC(C)(NC(=O)c1cc(-c2ccc(F)cc2)cc(-n2ccnc2C2CC2)c1)C1CC1 [Example 20, 3-(2-Cyclopropylimidazol-1-yl)-N-(2-cyclopropylpropan-2-yl)-5-(4-fluorophenyl)-benzamide]
180 | 96.5 | CC(C)c1nccn1-c1cc(C(=O)NC(C)(C)C)cc(-c2ccc(C(F)(F)F)cc2)c1 [Example 21, N-tert-Butyl-3-(2-propan-2-ylimidazol-1-yl)-5-[4-(trifluoromethyl)-phenyl]-benzamide]
120 | 98 | Cc1ccc(-c2cc(C(=O)NC(C)(C)C)cc(-n3ccnc3C(C)C)c2)cc1F [Example 22, N-tert-Butyl-3-(3-fluoro-4-methylphenyl)-5-(2-propan-2-ylimidazol-1-yl)-benzamide]
150 | 91.5 | CC(C)c1nccn1-c1cc(C(=O)NC(C)(C)C)cc(-c2ccc(F)c(F)c2)c1 [Example 23, N-tert-Butyl-3-(3,4-difluorophenyl)-5-(2-propan-2-ylimidazol-1-yl)-benzamide]
190 | 98 | CC(C)c1nccn1-c1cc(C(=O)NC(C)(C)C)cc(-c2ccc(Cl)c(F)c2)c1 [Example 24, N-tert-Butyl-3-(4-chloro-3-fluorophenyl)-5-(2-propan-2-ylimidazol-1-yl)-benzamide]
